Reference: US12714711B2, “Salts of neuroceuticals and uses thereof” (priority 2020, dated 2026)
“Also recorded” adds a separate entry of the source. Like-named read-outs stand apart in the source and are kept apart here.

Key:
[1] = Water solubility at 25° C.; conditions: 25° C.
MK-801 treated mice = experiment: Open field test, MK-801 induced hyper-locomotion; conditions: for Recovery rate (%): MK801-treated mice;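 for all read-outs here: adult male C57BL/6J mice, locomotion counted as total photobeam breaks over 60 minutes in an open field photobeam activity system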
Experimental: All mice were tested with open field task.
In this study, the mice were placed in a Plexiglas cage (37.5 cm×21.5 cm×18 cm) under 50-65 lux light intensity. Their spontaneous locomotor activities were measured for 60 minutes using the Photobeam Activity System (PAS)-open field (San Diego Instruments, San Diego, Calif., USA). The total number of photo beam breaks of each mouse was measured as an index of locomotor activity.
The schizophrenia-like behavior, MK801-induced hyperactivity, were tested by open field task.
All mice were tested in an open field task.
The schizophrenia-like behavior, NMDA-hypofunction-induced hyperactivity, were tested by open field task.
The amount of paliperidone administered to Groups 3 and 4 was equal. The schizophrenia-like behavior, MK801-induced hyperactivity, were tested by open field task.
The amount of paliperidone administered to Groups 3 and 4 was equal. The schizophrenia-like behavior, NMDA-hypofunction-induced hyperactivity, were tested by open field task.

[2] = Stress study at 40° C./75% relative humidity in a closed system, HPLC analysis; conditions: 40° C./75% RH, 30 days, in the presence of free benzoic acid
[3] = mice
Experimental: For the acute study, mice were randomly assigned into one of the five groups listed below. • Group 1: Vehicle control • Group 2: NA (3.77 mg/kg) • Group 3: Clz (10 mg/kg) • Group 4: Clz (10 mg/kg)+NA (3.77 mg/kg) • Group 5: Clz:NA 1:1 salt (13.77 mg/kg)
For the repeated dose study, two cohorts of mice were used. In cohort 1, mice were randomly assigned into one of the three groups listed below. • Group 1: Vehicle control • Group 2: Clz (10 mg/kg) • Group 3: Clz:NA 1:1 salt (13.77 mg/kg)
In cohort 2, the mice were randomly assigned into one of the three groups listed below. • Group 1: Vehicle control • Group 2: Clz (3 mg/kg) • Group 3: Clz:NA 1:1 salt (4.13 mg/kg)
To assess glucose tolerance, mice were fasted overnight on day 18 (for cohort 1) and on day 35 (for cohort 2), and their blood glucose response to i.p. administration of glucose (2 g/kg) was determined. Blood glucose levels were assessed in the whole blood collected from the tail vein, 60 min after drug administration Immediately following this glucose measurement, all mice were subjected to a glucose tolerance test by receiving an intraperitoneal challenge injection of 2 g/kg of glucose, and blood glucose levels were measured at 0, 30, 60 and 120 minutes.
Mice used in this study were randomly assigned into one of the six following groups: • Group 1: Vehicle control • Group 2: Clz (10 mg/kg) • Group 3: Clz (10 mg/kg)+enriched TA (22.5 mg/kg) • Group 4: Clz (10 mg/kg)+enriched TA (11.3 mg/kg) • Group 5: Clz:enriched TA 2:1 salt (32.5 mg/kg) • Group 6: Clz:enriched TA 4:1 salt (21.3 mg/kg)
One day before the glucose tolerance test, the mice fasted overnight and the blood glucose levels were measured in whole blood collected from the tail vein. Glucose levels were measured using a portable glucose meter (Contour® Plus, Bayer AG, Leverkusen, Germany) 60 min after they were acutely administered with the treatments indicated above Immediately following this glucose measurement, all mice were subjected to a glucose tolerance test by receiving an intraperitoneal challenge injection of 2 g/kg of glucose. Blood glucose levels were measured at 30, 60 and 120 minutes.
Two cohorts of mice were used in this study. […]

[4] = fasting glucose
Experimental: The testing compounds were administered to mice either through intraperitoneal (i.p.) injection or oral gavage before analyzing blood glucose levels.
For the acute study, two cohorts of mice were used.
For repeated-dose study, mice were randomly assigned into five groups as listed below. • Group 1: Vehicle control • Group 2: Clz (3 mg/kg) • Group 3: Clz:NA 1:1 salt (4.13 mg/kg) • Group 4: Clz (10 mg/kg) • Group 5: Clz:NA 1:1 salt (13.77 mg/kg)
The night before blood glucose levels were measured, the mice were fasted. Blood glucose levels were measured with a portable glucose meter (Contour® Plus, Bayer AG, Leverkusen, Germany) After waiting for 60 min, the treatments indicated above were administered. FIG. 75 illustrates the experimental design of this study.
Two cohorts of mice were used in this study. In cohort 1, mice were randomly assigned into the five groups listed below: • Group 1: Vehicle control • Group 2: NA (3.94 mg/kg) • Group 3: Olz (10 mg/kg) • Group 4: Olz (10 mg/kg)+NA (3.94 mg/kg) • Group 5: Olz:NA 1:1 salt (13.94 mg/kg)
Dosing occurred 60 min prior to measuring blood glucose levels.
In cohort 2, mice were randomly assigned into the five groups listed below: • Group 1: Vehicle control • Group 2: Olz (5 mg/kg) • Group 3: Olz:NA 1:1 salt (6.97 mg/kg) • Group 4: Olz (10 mg/kg) • Group 5: Olz:NA 1:1 salt (13.94 mg/kg)
The night before the glucose tolerance test, the mice fasted. Blood glucose levels were measured in whole blood that was collected from the mouse's tail vein. Glucose levels were measured with a portable glucose meter (Contour® Plus, Bayer AG, Leverkusen, Germany), with the measurement occurring 60 min after the mice were dosed with the treatments indicated above Immediately following the glucose measurement, all mice were subjected to a glucose tolerance test, which involved an intraperitoneal challenge injection of 1 g/kg of glucose, followed by measuring blood glucose levels at 0, 30, 60 and 120 minutes.

| SMILES | water solubility [1] [µg/mL] | Recovery rate (%) (MK-801 treated mice; dosage of clozapine 1 mg/kg (benzoic acid salt study)) | Degradation during the stress study (HPLC before vs after) [2] | blood glucose levels during glucose tolerance test compared to vehicle ([3]; single i.p. dose, olanzapine 5 mg/kg or salt 6.97 mg/kg, glucose 1 g/kg i.p.) | blood glucose levels during glucose tolerance test compared to vehicle ([3]; single i.p. dose, olanzapine 10 mg/kg or salt 13.94 mg/kg, glucose 1 g/kg i.p.) | blood glucose levels during glucose tolerance test compared to vehicle ([3]; single oral dose, olanzapine 10 mg/kg, NA 3.94 mg/kg, mixture, or salt 13.94 mg/kg) | Recovery rate (%) (MK-801 treated mice; dosage of olanzapine 0.1 mg/kg) | locomotor activity in MK-801 treated mice (MK-801 treated mice; oral olanzapine 0.1 mg/kg or nicotinic acid salt 0.14 mg/kg, MK-801 0.2 mg/kg i.p.) | Rate of reduce olanzapine-induced hyperglycemia (%) ([4]; acute i.p., dosage of olanzapine 5 mg/kg) | Rate of reduce olanzapine-induced hyperglycemia (%) ([4]; acute i.p., dosage of olanzapine 10 mg/kg) | Rate of reduce olanzapine-induced hyperglycemia (%) ([4]; acute oral, dosage of olanzapine 10 mg/kg) |
| --- | --- | --- | --- | --- | --- | --- | --- | --- | --- | --- | --- |
| CN1CCN(C2=Nc3cc(Cl)ccc3Nc3ccccc32)CC1.O=C(O)c1ccccc1 [clozapine:benzoic acid 1:1 salt] | 1580 | 85.8 | did not degrade; also recorded: more stable than clozapine |  |  |  |  |  |  |  |  |
| Cc1cc2c(s1)Nc1ccccc1N=C2N1CCN(C)CC1.O=C(O)c1cccnc1 [olanzapine:nicotinic acid 1:1 salt] |  |  |  | significantly higher than vehicle control group at 120 min after glucose challenge | significantly higher than vehicle control group at 120 min after glucose challenge and remained lower than the olanzapine (10 mg/kg) group at all time points | high glucose levels only after 60 mins, before returning to normal glucose levels 120 min post glucose challenge | 47.9 | significant decrease in MK-801-induced hyper-locomotion | 57.6 | 38.4 | 50.5 |
